Patent US9353079B2, “Solid forms of an alpha, omega di-substituted dihydroxy cyclopentyl compound and methods for the preparation and use thereof” (Allergan, Inc., priority 2013, dated 2016)

Assay: Solid-state stability of crystalline forms on storage, XRPD compared before and after
Format: physicochemical
Description: X-Ray powder diffraction patterns (XRPD) were obtained for the crystalline form described herein under the following conditions: • Equipment: Rigaku Smart-Lab • Scan range: 2 to 40° (2θ) • Scan speed: 3° (2θ) per minute • Step width: 0.02° (2θ) • X-ray information: Cu Kα, λ=1.54 Å, 40 kV/44 mA
Approximately 5-10 mg of the sample was gently applied on a low background Si holder and subjected to XRPD scanning.
In addition, another sample of 5-10 milligrams of crystalline Form A was maintained at a temperature of 22±2° C. and relative humidity of 59% for 144 hours.
A sample of 5-10 milligrams of crystalline Form B was maintained at a temperature of 22±2° C. and relative humidity of 59% for 120 hours.
In addition, another sample of 10-50 grams of crystalline Form B was maintained at a temperature of 22±2° C. and relative humidity of 0% for 120 hours.
In addition, a similar sample of crystalline Form B was maintained at a temperature of 40° C. for 16 hours.

SMILES | change of XRPD pattern / crystal form after storage (22±2° C., relative humidity 0%, 144 hours) | change of XRPD pattern / crystal form after storage (22±2° C., relative humidity 59%, 144 hours) | change of XRPD pattern / crystal form after storage (40° C., 25 minutes) | change of XRPD pattern / crystal form after storage (22±2° C., relative humidity 0%, 120 hours) | change of XRPD pattern / crystal form after storage (22±2° C., relative humidity 59%, 120 hours) | change of XRPD pattern / crystal form after storage (40° C., 16 hours)
NC(=O)CCC/C=C\C[C@@H]1[C@@H](/C=C/[C@@H](O)CCc2cc(Cl)sc2Cl)[C@H](O)C[C@@H]1O [Form A, 7-[3α,5α-dihydroxy-2-(3α-hydroxy-5-(3-(2,5-dichloro)thienyl)-1E-pentenyl)cyclopentyl]-5Z-heptenamide] | remained substantially unchanged | a substantial portion of crystalline Form A had converted to crystalline Form B | lack of significant change |  |  | 
NC(=O)CCC/C=C\C[C@@H]1[C@@H](/C=C/[C@@H](O)CCc2cc(Cl)sc2Cl)[C@H](O)C[C@@H]1O [Form B, 7-[3α,5α-dihydroxy-2-(3α-hydroxy-5-(3-(2,5-dichloro)thienyl)-1E-pentenyl)cyclopentyl]-5Z-heptenamide] |  |  |  | poorly-crystalline mixture of Forms A and B | remained substantially unchanged | a substantial portion of crystalline Form B had converted to the amorphous form
